According to patent US20090186896A1, “PDE Inhibitors and Combinations Thereof for the Treatment of Urological Disorders” (Bayer HealthCare AG, priority 2005, published 2009):
Like-named read-outs stand apart in the source and are kept apart here.

What was measured:
[1] = tested on: bladder of female Guinea Pigs; details: Gillespie 2004; cited from earlier work
[2] = tested on: rabbit bladder strips; assay: Organ bath, isolated rabbit bladder strips pre-contracted with K+ (50 mmol/l); type: cell-based; details: for % contraction of isolated rabbit bladder strips: percentage of the pre-contraction, mean ± SEM, n = 9; for IC50: Oryctolagus cuniculus, rabbit bladder strips
Procedure: White New Zealand rabbits were anesthetized using thiopental. The urinary bladder was removed and placed in ice-cold Krebs-Henseleit buffer of following composition (in mmol/l): NaCl 112, KCl 5.9, CaCl2 2.0 MgCl2 1.2, NaH2PO4 1.2, NaHCO3 25, and glucose 11.5. Equally sized longitudinal strips of approximately 2 mm×10 mm were cut from the bladder body.
Recording of mechanical activity: The preparations were transferred to 20 ml organ baths containing Krebs-Henseleit solution equilibrated with 95% O2, 5% CO2 at 37° C. The strips were mounted between two hooks by means of two clips. For recording of isometric tension one of the hooks was connected to a force transducer which was in turn linked to an amplifier and chart recorder. The other hook was attached to a movable unit, permitting precise adjustment of preload tension. All tissues were then given a 60 min equilibration period during which they were washed and the resting tension was adjusted to 1 g every 20 min.
After the equilibration period, each experiment was started by exposing the preparation to K^+ (50 mmol/l) Krebs-Henseleit solution. The procedure was repeated 3 times and the tissues were washed at least tree times between each contraction.
The bladder strips were than pre-contracted using K^+ (50 mmol/l) Krebs-Henseleit solution. When the contraction was stabilized, an accumulative dose response curve of the compound tested was constructed. The stabilized contraction induced by K^+ (50 mmol/l) Krebs-Henseleit solution was defined as 100% tension. The relaxation was expressed as percentage tension.
Effects of PDE5 and PDE4 inhibitors on isolated rabbit bladder strips: The effects of the PDE5 inhibitor vardenafil and the PDE4 inhibitor Roflumilast on the relaxation the bladder smooth muscle was tested in the organ bath using rabbit bladder strips. Both compounds were tested in the concentration from 10^−9 mol/l to 10^−5 mol/l (FIG. 4, Tab. 2). […] (Table 2)

[3] = tested on: rat bladder strips; assay: Organ bath, isolated rat bladder strips pre-contracted with K+ (50 mmol/l); type: cell-based; details: for Bladder (% contraction): percentage of the pre-contraction, mean ± SEM, n = 9
Text: Tissue preparation: Male Wistar rats (200-300 g) were euthanized using carbon dioxide. The tissues were removed and placed in ice-cold Krebs-Henseleit buffer of following composition (in mmol/l): NaCl 112, KCl 5.9, CaCl2 2.0 MgCl2 1.2, NaH2PO4 1.2, NaHCO3 25, glucose 11.5. Four equally sized longitudinal strips of approximately 2 mm×10 mm were cut from the bladder body. Prostate strips were obtained by cutting transversally through the lobes of the prostate gland parallel to the urethra. One ring per animal was dissected from the proximal part of the urethra. Recording of mechanical activity: The preparations were transferred to 20 ml organ baths containing Krebs-Henseleit solution equilibrated with 95% O2, 5% CO2 at 37° C. The strips were mounted between two hooks by means of two clips. For recording of isometric tension one of the hooks was connected to a force transducer which was in turn linked to an amplifier and chart recorder. The other hook was attached to a movable unit, permitting precise adjustment of preload tension. All tissues were then given a 60 min equilibration period during which they were washed and the resting tension was adjusted to 1 g every 20 min. After the equilibration period, each experiment was started by exposing the preparation to K^+ (50 mmol/l) Krebs-Henseleit solution. The procedure was repeated 3 times and the tissues were washed at least tree times between each contraction. The bladder strips were than pre-contracted using K^+ (50 mmol/l) Krebs-Henseleit solution. When the contraction was stabilized, an accumulative dose response curve of the compound tested was constructed. The stabilized contraction induced by K^+ (50 mmol/l) Krebs-Henseleit solution was defined as 100% tension. The relaxation was expressed as percentage tension. Organ bath assay: effects of Vardenafil on isolated rat urogenital organs: The effects of the PDE5 inhibitor Vardenafil on the relaxation of smooth muscles were tested in the organ bath system. The compound was applied in the concentration range from 10^−8 mol/l to 10^−5 mol/l (FIG. 3, Table 1).

[4] = tested on: rat urethral rings; assay: Organ bath, isolated rat urethral rings pre-contracted with phenylephrine; type: cell-based; details: for Urethra (% contraction): percentage of the pre-contraction, mean ± SEM, n = 9
Text: (§1) Tissue preparation: Male Wistar rats (200-300 g) were euthanized using carbon dioxide. The tissues were removed and placed in ice-cold Krebs-Henseleit buffer of following composition (in mmol/l): NaCl 112, KCl 5.9, CaCl2 2.0 MgCl2 1.2, NaH2PO4 1.2, NaHCO3 25, glucose 11.5. Four equally sized longitudinal strips of approximately 2 mm×10 mm were cut from the bladder body. Prostate strips were obtained by cutting transversally through the lobes of the prostate gland parallel to the urethra. One ring per animal was dissected from the proximal part of the urethra. Recording of mechanical activity: The preparations were transferred to 20 ml organ baths containing Krebs-Henseleit solution equilibrated with 95% O2, 5% CO2 at 37° C. The strips were mounted between two hooks by means of two clips. For recording of isometric tension one of the hooks was connected to a force transducer which was in turn linked to an amplifier and chart recorder. The other hook was attached to a movable unit, permitting precise adjustment of preload tension. All tissues were then given a 60 min equilibration period during which they were washed and the resting tension was adjusted to 1 g every 20 min. After the equilibration period, each experiment was started by exposing the preparation to K^+ (50 mmol/l) Krebs-Henseleit solution. The procedure was repeated 3 times and the tissues were washed at least tree times between each contraction. Prostatic strips and urethral rings were pre-contracted using 10^−6 mol/l phenylephrine. The effects of the compounds on the prostate tissue were tested in a non-cumulative manner with washing steps between each concentration. Organ bath assay: effects of Vardenafil on isolated rat urogenital organs: The effects of the PDE5 inhibitor Vardenafil on the relaxation of smooth muscles were tested in the organ bath system. The compound was applied in the concentration range from 10^−8 mol/l to 10^−5 mol/l (FIG. 3, Table 1).

[5] = tested on: rat prostate strips; assay: Organ bath, isolated rat prostate strips pre-contracted with phenylephrine; type: cell-based; details: for Prostate (% contraction): percentage of the pre-contraction, mean ± SEM, n = 9
Text: as §1

[6] = tested on: BOO rats; assay: Conscious cystometry in rat bladder outlet obstruction (BOO) model, non voiding contractions; type: in vivo; details: i.v.
Procedure: All animal experiments were performed due to the “German Law for the Protection of Laboratory animals” and were conducted due to the approved guidelines of the permission “Tierversuchsvorhaben No 401/A01 M010/M011 vom Sep. 7, 2004”. Experiments were performed with female Sprague Dawley Rats with a body weight between 200-250 g.
Bladder Outlet Obstruction: For the bladder outlet obstruction, rats were anesthetized with a mixture of 1.5-2% isoflurane in a carrier of 66% N2O 33% O2. The abdomen was shaved, opened by a lower midline incision, bladder and urethra were identified and the urethravesical junction was exposed. A 1.0 mm metal rod was placed along the proximal urethra and a 6-0 nylon ligature was tied tightly around the urethra and the rod. The rod was consecutively removed and the abdomen was closed by a silk ligature and cleaned up by 70% ethanol. […]
Conscious cystometry: For cystometry the animals were shortly anaesthetized by isoflurane as described above, placed in a Ballman's cage and fixed. […] The efficacy of treatment was quantified via calculation of the non voiding contractions per micturition interval before and after treatment. […]
Statistical analysis of results: Data are expressed as means±standard error of the means (SEM), and n indicating the number of experiments. The significance of differences between means was determined by paired and unpaired Student's t-test. […]

[7] = tested on: CYP-treated rats; assay: Anaesthetized cystometry, micturition interval in CYP-treated rats (overactive bladder); type: in vivo, rat; details: i.v.
Procedure: All animal experiments were performed due to the “German Law for the Protection of Laboratory animals” and were conducted due to the approved guidelines of the permission “Tierversuchsvorhaben No 401/A01 M010/M011 vom Sep. 7, 2004”. Experiments were performed with female Sprague Dawley Rats with a body weight between 200-250 g. Anaesthetized cystometry: For cystometry female SD rats were anaesthetized with urethane (1.2 g/kg, ip). After laparotomy, the bladder was exposed and both ureters were ligated and cut. A polyethylene cannula (PE50) was implanted into the bladder dome, and the abdomen was closed. The bladder catheter was connected to the t-shaped tube to connect a infusion pump (Perfusor® compact; Braun Melsungen) for continuous infusion of saline solution and to connect a pressure transducer (Combitrans; Braun Melsungen) for measurement of intrabladder pressure. The intrabladder pressure signals were registered with the Powerlab System (MLT0698, ADInstrument). […] The effect of treatments was calculated on the micturition interval (corresponding to bladder capacity). […]
Statistical analysis of results: Data are expressed as means i standard error of the means (SEM), and n indicating the number of experiments. The significance of differences between means was determined by paired and unpaired Student's t-test. […]

[8] = tested on: human prostate tissue; details: in vitro; Ückert 2001; cited from earlier work
[9] = read-out: IC50, relaxation of bladder strips

Compound: CC(C)Cn1c(=O)n(C)c(=O)c2[nH]cnc21 [IBMX]
- relaxation of bladder [1]: could relax

Compound: O=C(Nc1c(Cl)cncc1Cl)c1ccc(OC(F)F)c(OCC2CC2)c1 [Roflumilast]
- % contraction of isolated rabbit bladder strips ([2]; 0.001 μmol/l): 100.8 ± 0.6%
- % contraction of isolated rabbit bladder strips ([2]; 0.01 μmol/l): 90.1 ± 1.7%
- % contraction of isolated rabbit bladder strips ([2]; 0.1 μmol/l): 75.1 ± 2.1%
- % contraction of isolated rabbit bladder strips ([2]; 1 μmol/l): 55.8 ± 2.5%
- % contraction of isolated rabbit bladder strips ([2]; 10 μmol/l): 40.9 ± 3.3%
- IC50 [2, 9]: 260 nM
- IC50 ([2]; read-out: IC50, relaxing effects on rabbit bladder strips): 260 nM

Compound: CCCc1nc(C)c2c(=O)[nH]c(-c3cc(S(=O)(=O)N4CCN(CC)CC4)ccc3OCC)nn12 [Vardenafil, 2-(2-Ethoxy-5-(4-ethylpiperazin-1-yl-1-sulfonyl)phenyl)-5-methyl-7-propyl-3H-imidazo (5,1-f) (1,2,4)triazin-4-one]
- Bladder (% contraction) ([3]; 0.001 μmol/l): 94.3 ± 0.9%
- Bladder (% contraction) ([3]; 0.01 μmol/l): 91.2 ± 1.3%
- Bladder (% contraction) ([3]; 0.1 μmol/l): 89.9 ± 1.8%
- Bladder (% contraction) ([3]; 1 μmol/l): 77.8 ± 2.1%
- Bladder (% contraction) ([3]; 10 μmol/l): 25.3 ± 3.2%
- EC50 ([3]; rat bladder strips, read-out: EC50, relaxation of bladder strips): 5000 nM
- Urethra (% contraction) ([4]; 0.001 μmol/l): 88.4 ± 2.4%
- Urethra (% contraction) ([4]; 0.01 μmol/l): 88.5 ± 2.1%
- Urethra (% contraction) ([4]; 0.1 μmol/l): 77.1 ± 3.9%
- Urethra (% contraction) ([4]; 1 μmol/l): 44.9 ± 1.5%
- Urethra (% contraction) ([4]; 10 μmol/l): 3.5 ± 1.7%
- EC50 ([4]; rat urethral rings, read-out: EC50, relaxation of urethral rings): 960 nM
- Prostate (% contraction) ([5]; 0.1 μmol/l): 99.2 ± 3.0%
- Prostate (% contraction) ([5]; 1 μmol/l): 76.0 ± 2.3%
- Prostate (% contraction) ([5]; 10 μmol/l): 25.3 ± 3.2%
- EC50 ([5]; rat prostate strips, read-out: EC50, relaxation of prostate strips): 1100 nM
- % contraction of isolated rabbit bladder strips ([2]; 0.001 μmol/l): 100.9 ± 1.0%
- % contraction of isolated rabbit bladder strips ([2]; 0.01 μmol/l): 99.9 ± 0.9%
- % contraction of isolated rabbit bladder strips ([2]; 0.1 μmol/l): 95.7 ± 1.7%
- % contraction of isolated rabbit bladder strips ([2]; 1 μmol/l): 76.3 ± 3.7%
- % contraction of isolated rabbit bladder strips ([2]; 10 μmol/l): 9.6 ± 12.6%
- IC50 [2, 9]: 1700 nM
- MED, significant reduction of non voiding contractions (NVC) [6]: 3 mg/kg
- MED, significant increase of micturition interval [7]: 3 mg/kg

Compound: CCCOc1ccccc1-c1nc2nn[nH]c2c(=O)[nH]1 [Zaprinast]
- relaxation of pre-contracted human prostate tissue [8]: able to relax
- relaxation of bladder [1]: ineffective
